Experiment [1] can be described thus: DPPH radical-scavenging activity. As to conditions: mean ± SD, n = 2. On the set-up: AA (%), percentage of antioxidant activity: concentration or dose not given beside the values. In kind it is physicochemical. As for the experimental part:
The antioxidant activity of the representative compounds of the two series (namely, acylhydrazones 10b, 11a, 11d, 12d, 13d, and amides 14, 22) was measured in vitro using the 2,2-diphenyl-1-picrylhydrazyl (DPPH) assay. The results were calculated as Trolox equivalent and expressed as a percentage of antioxidant activity (AA) (Table 3). […] Derivatives 10b and 12d were endowed with the highest antioxidant activity, thus highlighting the relevance of both pyrazole N1 and acylhydrazone substituents on compounds’ radical scavenging properties.
Compounds 10b, 11a, 11d, 12d, 13d, 14, and 22 (ca. 3 mg) were dissolved in DMSO (1 mL), and then 100 µL of this solution was mixed with 3.9 mL of DPPH methanol solution (65 µM). Absorbance was measured at 517 nm after reacting for 30 min in the dark. The linear calibration curve was obtained using Trolox standards (ranging between 20 and 200 mg/L, R^2 = 0.9955). The result was calculated as Trolox equivalent in mg/L, and the percentage of antioxidant activity (AA%) was calculated from the ratio of decreasing absorbance of sample solution (A0 − As) to absorbance of blank DPPH solution (A0), as expressed in Equation (1). (1) AA%=A0−As/A0×100
All analyses were carried out in duplicate (n = 2), and values are given as means ± standard deviation (SD).

Experiment [2] has as its system HL-60(TB). Kind of experiment: NCI screening, Leukemia. In kind it is cell-based. The conditions noted are these: 10 µM. The method, then:
(§1) In addition, 11a and 17 (representative compounds of the acylhydrazone and amide series) were selected by the National Cancer Institute (NCI, Germantown, MD, USA) and tested at a fixed concentration of 10 µM against a panel of fifty-nine different cancer cell lines, including highly metastatic tumors (Table 2).

The test system of experiment [3] is K-562. The experiment can be described thus: NCI screening, Leukemia. In kind it is cell-based. As to conditions: K-562, Leukemia; 10 µM. The method, then:
as §1

For experiment [4], the system named is SR. Kind of experiment: NCI screening, Leukemia. In kind it is cell-based. As to conditions: 10 µM. As for the experimental part: as §1
Experiment [5] has as its system NCI-H460. The experiment can be described thus: NCI screening, Non-Small Cell Lung Cancer. The conditions noted are these: 10 µM. In kind it is cell-based. The method, then: as §1
The test system of experiment [6] is NCI-H522. The experiment can be described thus: NCI screening, Non-Small Cell Lung Cancer. In kind it is cell-based. The conditions noted are these: 10 µM. As for the experimental part:
as §1

Experiment [7] deals with HCT-116. Kind of experiment: NCI screening, Colon Cancer. In kind it is cell-based. The conditions noted are these: HCT-116, Colon Cancer; 10 µM. As for the experimental part: as §1
The test system of experiment [8] is HCT-15. Kind of experiment: NCI screening, Colon Cancer. In kind it is cell-based. As to conditions: HCT-15, Colon Cancer; 10 µM. As for the experimental part: as §1
Experiment [9] deals with HT29. The experiment can be described thus: NCI screening, Colon Cancer. As to conditions: 10 µM. In kind it is cell-based. As for the experimental part:
as §1

In experiment [10] the test system is SW-620. The experiment can be described thus: NCI screening, Colon Cancer. In kind it is cell-based. The conditions noted are these: SW-620, Colon Cancer; 10 µM. As for the experimental part: as §1
Experiment [11] concerns HS 578T. The experiment can be described thus: NCI screening, Breast Cancer. In kind it is cell-based. The conditions noted are these: 10 µM. As for the experimental part: as §1
Experiment [12] deals with MCF7. Kind of experiment: NCI screening, Breast Cancer. In kind it is cell-based. The conditions noted are these: 10 µM. The method, then:
as §1

The subject of experiment [13] is MDA-MB-468. Kind of experiment: NCI screening, Breast Cancer. In kind it is cell-based. The conditions noted are these: MDA-MB-468, Breast Cancer; 10 µM; negative values indicate lethality. As for the experimental part:
as §1

Experiment [14] concerns LOX IMVI. The experiment can be described thus: NCI screening, Melanoma. In kind it is cell-based. The conditions noted are these: 10 µM. As for the experimental part: as §1
For experiment [15], the system named is M14. The experiment can be described thus: NCI screening, Melanoma. In kind it is cell-based. The conditions noted are these: 10 µM. The method, then:
as §1

For experiment [16], the system named is MDA-MB-435. The experiment can be described thus: NCI screening, Melanoma. In kind it is cell-based. As to conditions: MDA-MB-435, Melanoma; 10 µM; negative values indicate lethality. The method, then: as §1

SMILES strings stand for the structures.

`COc1ccc(/C=N/NC(=O)c2c(N)nn(C)c2Nc2ccccc2)cc1` [11a, (E)-3-amino-N′-(4-methoxybenzylidene)-1-methyl-5-(phenylamino)-1H-pyrazole-4-carbohydrazide]: in experiment [1], the “AA (%), percentage of antioxidant activity” value came out at 25.56 ± 2.44% and the “DPPH (%)” value is listed as 74.44 ± 2.44%.

Take `CCOC(=O)c1c(NC(=O)C2CC2)nn(C)c1Nc1ccccc1` [compound 17, Ethyl 3-(cyclopropanecarboxamido)-1-methyl-5-(phenylamino)-1H-pyrazole-4-carboxylate]: the “Growth Percentage (%)” value in experiment [2] was 96.44%; in [3] it was 96.41%; in experiment [4], 94.23%; in experiment [5], 101.02%; in [6], 97.23%; in [7], 104.12%. Moreover, the “Growth Percentage (%)” value in experiment [8] stood at 96.95%; in experiment [9] it was 99.47%; in experiment [10] it was 94.82%; in experiment [11], 96.86%; in experiment [12], 92.37%; in experiment [13] it was 102.11%. Further, the “Growth Percentage (%)” value in experiment [14] is listed as 102.01%; in [15], 102.31%; in [16], 101.76%.

For the origin of these results see publication PMC11083148, “Structure–Activity Relationship Studies on Highly Functionalized Pyrazole Hydrazones and Amides as Antiproliferative and Antioxidant Agents” (International Journal of Molecular Sciences, 2024).
